Assay results from patent US20100022514A1, “Heterocycle Compounds and Methods of Use Thereof” (NORVARTIS AG, priority 2006, published 2010).

How the values were obtained:
HDAC-1 = target: T1, HDAC-1 (Homo sapiens, UniProt Q13547); experiment: Deacetylase fluorescence assay (HDAC-1); format: biochemical; conditions: read-out: HDAC-1 IC50
T1 construct: made in house
Procedure: Conventional methods are used to express deacetylase enzymes and purify them from lysed cells. The following example describes an exemplary procedure, however equivalent procedures are within the scope of the invention.
The cell line used is a derivative of 293 cells overexpressing a fusion of the gene encoding each deacetylase protein with a nucleotide sequence encoding the Flag marker.
Cells are grown in Optimem, 2% Fetal Calf Serum, Pen/Strep. For enzyme preparation, Lysis buffer (IPLS) is 50 mM Tris-HCl, pH 7.5, 120 mM NaCl, 0.5 mM EDTA and 0.5% Nonidet P-40, to which is added one tablet of Protease inhibitors (Roche 11836170001) per 10 ml buffer. Other buffers are IPHS, which is IPLS containing 1 M NaCl; TBS (Sigma #T5912) dilute 10× stock to 1× with dH2O; HD buffer: 10 mM Tris pH 8.0 (1M Stock) 10 mM NaCl (5M Stock), 10% glycerol, and for dialysis: 400 μM PMSF is added (for 2 L: use 8 ml 100 mM Stock). Protease inhibitors (Complete mini, Boehringer Mannheim), 1 tablet/10 mL are added to all buffers but not used in buffers for enzyme assays.
Cells are harvested without using trypsin, and most cells are obtained easily in PBS, with gentle striking or agitation of flasks if necessary. More adherent cells are scraped in PBS. Cells are grown in 500 cm^2 trays, from which about half of the media is aspirated (50 ml total), then cells are scraped in the rest of the media and transferred to a centrifuge tube. Trays are washed with 25 ml cold PBS, scraped again to collect additional cells, and centrifuged at 1500 rpm at 4° C. for 5 min. Cells are washed at least 3 times in PBS to remove growth media, pelleting cells after each wash by centrifugation at 1500 rpm for 5 minutes. After washing, PBS is removed and the resulting cell pellet frozen at −80° C. for storage prior to purification.
For purification, cells are resuspended in lysis buffer, 12 ml of IPLS for cells collected from 10 500 cm trays. Cells are lysed at 4° C. for 3 hrs with rocking, and debris is removed by centrifugation for 20 min at 17,000 rpm in 30 ml centrifuge tubes. If supernatant is not clear afterward, centrifugation of the supernatant is repeated. Protein concentration of the whole cell lysate is determined (generally in the range of about 2-5 mg/ml).
For immunoprecipitation per mg of protein, 15 μL of anti-Flag M2-Agarose Affinity beads (Sigma #A2220) is used. Beads are prepared by washing 3 times with 10× bead volume of PBS and 1 time with IPLS, with centrifugation of the washes at 1500 rpm for 5 min. Whole cell lysate is incubated with the Ab-beads overnight at 4° C. Then beads are centrifuged and washed in 5× volume of the following buffers: three times in IPLS (30 sec at 4° C., spin at 1500 RPM for 5 min); three times in IPHS; and three times in TBS buffer. After each centrifugation, the supernatant is aspirated, leaving the pellet as dry as possible but avoiding sucking up any of the beads.
To elute the enzyme, beads are resuspended in 5× bead volume of TBS with protease inhibitor (Roche 11836170001) 1 tablet/10 mL. Enzyme is eluted with 400 μg/mL Flag peptide (Sigma #F-3290) for 3 hrs at 4° C. on rotator. Then beads are centrifuged, and the supernatant is transferred to a new tube to which is added 1/10 volume of glycerol. The supernatant is transferred to a dialysis cassette (Pierce #66410) using a 3 cc syringe and 18 G needle, and is dialyze sup in 2 L HD buffer for 2 hrs at 4° C. (1 L/hour). The resulting purified deacetylase is divided into aliquots (300 μL/tube), is snap frozen in dry ice bath, and is stored at −80° C.
For assay of deacetylase an assay based on Deacetylase Fluorescent Activity Assay/Drug Discovery Kit (BioMol # AK500) is used, however any equivalent deacetylase assay is within the scope of the invention.
The Fluorescent Assay Buffer (FAB) contains: 25 mM Tris-HCl, pH 8.0, 137 mM NaCl, 2.7 mM KCl and 1 mM MgCl2. […]

[1] = tested on: p21 promoter (p21-luc) in H1299 cells; experiment: p21 promoter luciferase assay using stably transfected p21-luc in H1299 cells; format: cell-based; conditions: Homo sapiens, NCI-H1299
Procedure: The cell lines used are derived from H1299 (p21-luc). The growth media used is RPMI 1640, 10% FBS, 1% Pen/Strep and the selection media added is 500 μg/mL Geneticin (Gibco). The buffer used is 5× cell culture lysis buffer (Promega #E1531), stored at −20 C and the Luciferase assay reagent (Promega #E1483) is stored at −70° C. The results of the assay are analyzed using Wallac Software.
To assay Luciferase, the cell culture medium is removed after one day of growth and the flasks are washed once with PBS. The cells are trypsinized in 20 mL of media and the trypsin is neutralized. The cells are counted (0.5-1 mL) on a Vi-Cell XR cell viability analyzer.
Cells are then diluted to a concentration of approximately 5000 cells/200 μL, and 190 μL samples are aliquoted into each well of a Costar white 96-well TC treated white bottom plate with lid (Costar #3917). Plates are then incubated overnight at 37 C.
After a further day, a sample of the compound is added to the wells for assay.
After a further day, the cells are lysed and the luciferase activity of the lysed cells is measured. Each well is washed twice with PBS and 20 μL/well of 1× cell culture lysis buffer (dilute 5× to 1× in distilled water) is added to each well. The microtiter plates are then shaken on a microtiter plate shaker for 20 minutes at room temperate at a speed setting of 5-6. After removal from the shaker, 100 μL of Luciferase Reagent is added to each well. Each microtiter plate is then read on Wallac Envision instrument.

T1 sequence (Q13547 whole entry): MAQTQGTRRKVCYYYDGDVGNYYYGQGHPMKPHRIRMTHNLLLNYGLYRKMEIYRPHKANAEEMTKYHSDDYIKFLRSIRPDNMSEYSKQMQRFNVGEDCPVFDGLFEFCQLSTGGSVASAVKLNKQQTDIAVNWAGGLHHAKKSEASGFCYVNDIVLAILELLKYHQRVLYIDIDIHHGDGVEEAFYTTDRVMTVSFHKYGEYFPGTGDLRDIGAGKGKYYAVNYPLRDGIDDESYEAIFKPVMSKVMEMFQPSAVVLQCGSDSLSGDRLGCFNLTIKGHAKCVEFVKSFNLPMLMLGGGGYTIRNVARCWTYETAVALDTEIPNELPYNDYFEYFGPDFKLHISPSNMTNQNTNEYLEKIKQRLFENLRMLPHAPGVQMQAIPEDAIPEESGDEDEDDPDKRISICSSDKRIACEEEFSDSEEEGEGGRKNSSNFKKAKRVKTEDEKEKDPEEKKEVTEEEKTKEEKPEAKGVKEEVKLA

| SMILES | IC50 (HDAC-1) [nM] | AC50 [1] [nM] |
| --- | --- | --- |
| O=C(/C=C/c1ccc2c(c1)CCN(CCc1c[nH]c3ccccc13)C2)NO [Example 68, (E)-N-Hydroxy-3-{2-[2-(1H-indol-3-yl)-ethyl]-1,2,3,4-tetrahydro-isoquinolin-6-yl}-acrylamide] | < 100 | > 1000 |
| O=C(/C=C/c1ccc2c(c1)CN(CCc1ccnn1-c1ccccc1)CC2)NO [Example 48, (E)-N-Hydroxy-3-{2-[2-(2-phenyl-2H-pyrazol-3-yl)-ethyl]-1,2,3,4-tetrahydro-isoquinolin-7-yl}-acrylamide] | 100 to 1000 | > 1000 |
| Cc1[nH]c2ccccc2c1CCN1CCc2ccc(/C=C/C(=O)NO)cc2C1 [Example 39, (E)-N-Hydroxy-3-{2-[2-(2-methyl-1H-indol-3-yl)-ethyl]-1,2,3,4-tetrahydro-isoquinolin-7-yl}-acrylamide] | < 100 | 100 to 1000 |
| O=C(/C=C/c1ccc2c(c1)CN(Cc1ccccc1)C2)NO [Example 1, (E)-3-(2-Benzyl-2,3-dihydro-1H-isoindol-5-yl)-N-hydroxy-acrylamide] | 100 to 1000 | > 1000 |
| O=C(/C=C/c1ccc2c(c1)CN(CCc1c[nH]c3ccccc13)CC2)NO [Example 36, (E)-N-Hydroxy-3-{2-[2-(1H-indol-3-yl)-ethyl]-1,2,3,4-tetrahydro-isoquinolin-7-yl}-acrylamide] | 100 to 1000 | > 1000 |
| O=C(/C=C/c1ccc2c(c1)CN(C(=O)c1cccc(C(F)(F)F)c1)C2)NO [Example 16, (E)-N-Hydroxy-3-[2-(3-trifluoromethyl-benzoyl)-2,3-dihydro-1H-isoindol-5-yl]-acrylamide] | 100 to 1000 | > 1000 |
| CC(C)(C)c1[nH]c2ccccc2c1CCN1CCc2ccc(/C=C/C(=O)NO)cc2C1 [Example 42, (E)-3-{2-[2-(2-tert-Butyl-1H-indol-3-yl)-ethyl]-1,2,3,4-tetrahydro-isoquinolin-7-yl}-N-hydroxy-acrylamide] | < 100 | 100 to 1000 |
| O=C(/C=C/c1ccc2c(c1)CCN(CCC1CCCCC1)C2)NO [Example 76, (E)-3-[2-(2-Cyclohexyl-ethyl)-1,2,3,4-tetrahydro-isoquinolin-6-yl]-N-hydroxy-acrylamide] | < 100 | > 1000 |
| O=C(/C=C/c1ccc2c(c1)CN(Cc1ccccc1)CC2)NO [Example 51, (E)-3-(2-Benzyl-1,2,3,4-tetrahydro-isoquinolin-7-yl)-N-hydroxy-acrylamide] | 100 to 1000 | > 1000 |
| COc1cccc(C(=O)N2CCc3ccc(/C=C/C(=O)NO)cc3C2)c1 [Example 59, (E)-N-Hydroxy-3-[2-(3-methoxy-benzoyl)-1,2,3,4-tetrahydro-isoquinolin-7-yl]-acrylamide] | 100 to 1000 | > 1000 |
| COc1cccc(C(=O)N2CCc3cc(/C=C/C(=O)NO)ccc3C2)c1 [Example 88, (E)-N-Hydroxy-3-[2-(3-methoxy-benzoyl)-1,2,3,4-tetrahydro-isoquinolin-6-yl]-acrylamide] | 100 to 1000 | > 1000 |
| O=C(/C=C/c1ccc2c(c1)CCN(CCc1ccccc1)C2)NO [Example 75, (E)-N-Hydroxy-3-(2-phenethyl-1,2,3,4-tetrahydro-isoquinolin-6-yl)-acrylamide] | < 100 | > 1000 |
| CC(C)(C)OC(=O)N1Cc2ccc(/C=C/C(=O)NO)cc2C1 [Example 2, 5-((E)-2-Hydroxycarbamoyl-vinyl)-1,3-dihydro-isoindole-2-carboxylic acid tert-butyl ester] | 100 to 1000 | > 1000 |
| COc1ccc(S(=O)(=O)N2CCc3ccc(/C=C/C(=O)NO)cc3C2)cc1 [Example 56, (E)-N-Hydroxy-3-[2-(4-methoxy-benzenesulfonyl)-1,2,3,4-tetrahydro-isoquinolin-7-yl]-acrylamide] | 100 to 1000 | > 1000 |
| Cc1noc(-c2ccccc2)c1CCN1CCc2ccc(/C=C/C(=O)NO)cc2C1 [Example 38, (E)-N-Hydroxy-3-{2-[2-(3-methyl-5-phenyl-isoxazol-4-yl)-ethyl]-1,2,3,4-tetrahydro-isoquinolin-7-yl}-acrylamide] | < 100 | > 1000 |
